Results on eleven molecules are retold here after ChEMBL document CHEMBL1201862, “PubChem BioAssay data set” (2004).

Assay in all cases: growth of human tumour cells (NCI), 48 h
The subject of assay [1] is 786-0.
Assay [2] deals with A549.
The test system of assay [3] is EKVX.
The test system of assay [4] is HCT-116.
For assay [5], the system named is HCT-15.
Assay [6] has as its system Hs-578T.
Assay [7] relates to KM12.
In assay [8] the test system is M14.
For assay [9], the system named is MDA-MB-231.
Assay [10] concerns MDA-N.
Assay [11] deals with NCI-H23.
Assay [12] has as its system NCI-H522.
Assay [13] has as its system NCI/ADR-RES.
In assay [14] the test system is OVCAR-5.
The subject of assay [15] is SF-268.
In assay [16] the test system is SF-295.
Assay [17] deals with SN12C.
Assay [18] has as its system SR.
The subject of assay [19] is SW-620.
In assay [20] the test system is HOP-92.

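Where inhibition never reached the appropriate level, the endpoint shown equals the highest concentration tested. Otherwise, values were interpolated linearly from a five-concentration, 48-hour dose response in 96-well plates. At the GI50, growth is halved.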 Activity calls are given as the source filed them. No stated cut-off is given here; in the data, active = GI50 up to about 1.1 µM and inactive = higher.

Regarding `Cc1ccc(C(=C2Sc3ccccc3S2)C(=C2Sc3ccccc3S2)c2ccc(C)s2)s1`, the GI50 is > 100 µM (inactive) in [1]; > 100 µM (inactive) in [2]; > 100 µM (inactive) in assay [3]; > 100 µM (inactive) in [4]; more than 100 µM in assay [5]; > 100 µM (inactive) in assay [6]. Further, the GI50 in assay [7] was > 100 µM (inactive); in [8], 76.2 µM (inactive); in [9], 42.8 µM (inactive); in assay [10] it was > 100 µM (inactive); in assay [11] it was > 100 µM (inactive); in assay [12], > 100 µM (inactive). Further, the GI50 in assay [13] was > 100 µM (inactive); in assay [14] it was > 100 µM (inactive); in assay [15], > 100 µM (inactive); in assay [16], > 100 µM (inactive); in assay [17], > 100 µM (inactive); in [18] it was 47.5 µM (inactive). In addition, the GI50 in assay [19] was > 100 µM (inactive).
Turning to `CC(C)C1=C(Cc2ccccc2)C(=O)O/C1=C\c1ccc(O)c(Cl)c1`, the GI50 in [1] was 16.5 µM (inactive); in assay [2] it was 15.1 µM (inactive); in assay [3] it was 16.6 µM (inactive); in assay [4], 15.5 µM (inactive); in assay [5], 16 µM; in assay [6], 13.6 µM (inactive). In addition, the GI50 in [7] is 18.1 µM (inactive); in assay [8], 17.5 µM (inactive); in [9], 16.2 µM (inactive); in [10], 16.5 µM (inactive); in assay [11], 13.1 µM (inactive); in assay [13], > 10 µM (inactive). Moreover, the GI50 in [14] is 18.4 µM (inactive); in assay [15] it was 16.6 µM (inactive); in assay [16], 16 µM (inactive); in [17] it was 16.9 µM (inactive); in assay [18], 10.4 µM (inactive); in assay [19] it was 19.1 µM (inactive).
On to `CC[C@H](C)C(=O)O[C@H]1CCC=C2C=C[C@H](C)[C@H](CC[C@@H]3C[C@@H](O)CC(=O)O3)[C@H]21` [MEVASTATIN], for which the GI50 was 13.3 µM (inactive) in assay [1]; 27.4 µM (inactive) in assay [2]; > 38.9 µM (inactive) in [3]; 17.1 µM (inactive) in [4]; 4.06 µM in assay [5]; 3.42 µM (inactive) in assay [6]. The GI50 was 37 µM (inactive) in assay [7]; 10 µM (inactive) in [8]; 3.85 µM (inactive) in assay [9]; > 100 µM (inactive) in assay [10]; 20.1 µM (inactive) in [11]; 2.85 µM (inactive) in assay [12]. The GI50 is 10.3 µM (inactive) in assay [13]; 31.6 µM (inactive) in assay [14]; 7.31 µM (inactive) in assay [15]; 3.27 µM (inactive) in assay [16]; > 78.9 µM (inactive) in [17]; 8.73 µM (inactive) in assay [18]. Further, the GI50 in assay [19] was 24.7 µM (inactive).
With `NC1CC(=O)c2csc(Cl)c21` (stereo not drawn), the GI50 in assay [1] was 1.55 µM (inactive); in [2], 17.9 µM (inactive); in assay [3], 17.3 µM (inactive); in assay [4], 3.86 µM (inactive); in [5] it was 5.41 µM; in assay [20], 4.46 µM (inactive). Besides, the GI50 is 35.5 µM (inactive) in assay [6]; 0.736 µM (active) in [7]; 8.99 µM (inactive) in [8]; 9.46 µM (inactive) in assay [9]; 8.63 µM (inactive) in assay [10]; 20.7 µM (inactive) in assay [11]. The GI50 is 1.72 µM (inactive) in [12]; 27 µM (inactive) in [13]; 19.6 µM (inactive) in [14]; 10.1 µM (inactive) in assay [15]; 17.1 µM (inactive) in assay [16]; 5.42 µM (inactive) in assay [17]. For the same molecule, the GI50 in assay [19] was 2.05 µM (inactive).
For `N#Cc1ccccc1NC(=O)/C(=N\NC(=O)c1ccncc1)C(c1cnc2ccc([N+](=O)[O-])cc2n1)[N+](=O)[O-]` (stereo not drawn), the GI50 in assay [1] was > 100 µM (inactive); in [2], 97.9 µM (inactive); in assay [3], 53.1 µM (inactive); in assay [4], > 100 µM (inactive); in assay [5] it was 78.3 µM; in assay [20], 86.9 µM (inactive). The GI50 in assay [6] was > 100 µM (inactive); in assay [7], 39.9 µM (inactive); in assay [8] it was 67.6 µM (inactive); in assay [9] it was > 100 µM (inactive); in [10], > 100 µM (inactive); in assay [11], > 100 µM (inactive). Further, the GI50 in assay [12] is 33 µM (inactive); in [13], > 100 µM (inactive); in assay [14] it was > 100 µM (inactive); in assay [15], > 100 µM (inactive); in [16] it was > 100 µM (inactive); in assay [17], > 100 µM (inactive). For the same molecule, the GI50 in [19] is > 100 µM (inactive).
Turning to `O=C1/C(=C/c2ccccc2)CCc2ccccc21`, the GI50 was 17.5 µM (inactive) in assay [1]; 22.7 µM (inactive) in [2]; 17.8 µM (inactive) in assay [3]; 15.1 µM (inactive) in [4]; 25.6 µM in assay [5]; 19.8 µM (inactive) in [6]. Moreover, the GI50 is 18 µM (inactive) in [7]; 20.1 µM (inactive) in assay [8]; 26.2 µM (inactive) in assay [9]; 16.2 µM (inactive) in assay [10]; 19.6 µM (inactive) in assay [11]; 28.4 µM (inactive) in [13]. Further, the GI50 in [14] is 16.8 µM (inactive); in assay [15] it was 19.7 µM (inactive); in assay [16] it was 17.7 µM (inactive); in [17], 21.9 µM (inactive); in assay [18] it was 9.71 µM (inactive); in assay [19], 13.9 µM (inactive).
Take `Cc1ccc2cccc3c2c1CC1(C3=O)S(=O)(=O)OCCOS1(=O)=O`: the GI50 in assay [1] is > 100 µM (inactive); in [2], > 100 µM (inactive); in assay [3], > 100 µM (inactive); in assay [4], > 100 µM (inactive); in assay [5], more than 100 µM; in assay [20] it was > 100 µM (inactive). In addition, the GI50 in assay [6], in [7], in assay [8], in [9], in assay [10] and in assay [11] was > 100 µM (inactive) each time. In addition, the GI50 in [12], in assay [13], in [14], in [15], in assay [16] and in assay [17] was > 100 µM (inactive) throughout. Further, in [19], the GI50 is > 100 µM (inactive).
With `COc1ccc(C2=NN(C(=O)c3ccc(Cl)cc3)C(O)(c3cc(F)c(Cl)cc3Cl)C2)cc1OC` (stereo not drawn), the GI50 is 17.8 µM (inactive) in assay [1]; 27.7 µM (inactive) in [3]; 6.14 µM (inactive) in assay [4]; 8.28 µM in assay [5]; 13.2 µM (inactive) in assay [20]; 24 µM (inactive) in assay [6]. The GI50 was 8.15 µM (inactive) in [7]; 12.5 µM (inactive) in assay [8]; > 100 µM (inactive) in assay [9]; 15.5 µM (inactive) in assay [10]; 47.1 µM (inactive) in [11]; 6.68 µM (inactive) in assay [12]. In addition, the GI50 in [13] is 9.77 µM (inactive); in [14], > 100 µM (inactive); in [15] it was 21.2 µM (inactive); in [16], 26 µM (inactive); in assay [19] it was 6.97 µM (inactive).
Regarding `CC(C)C1(C)N=C(C(F)(F)F)c2cc(C(=O)C(F)(F)F)c3ccccc3c2N1` (stereo not drawn), the GI50 in assay [1] is 3.7 µM (inactive); in assay [2] it was 5.43 µM (inactive); in assay [3], 4.91 µM (inactive); in assay [4], 2.94 µM (inactive); in assay [5] it was 3.23 µM; in [6], 2.5 µM (inactive). For the same molecule, the GI50 in [7] is 3.31 µM (inactive); in assay [8], 4.99 µM (inactive); in [9], 2.73 µM (inactive); in [10] it was 3.04 µM (inactive); in assay [11], 2.77 µM (inactive); in [12] it was 2.3 µM (inactive). The GI50 in assay [13] was 2.78 µM (inactive); in assay [14], 11.2 µM (inactive); in assay [15], 3.02 µM (inactive); in assay [16] it was 3.38 µM (inactive); in assay [17], 2.91 µM (inactive); in assay [18], 4.39 µM (inactive). For the same molecule, the GI50 in assay [19] is 5.55 µM (inactive).
Take `O=C1Nc2ccccc2/C1=C\c1c(-c2ccccc2)nc2n1CCS2`: the GI50 in [1] was 19.6 µM (inactive); in assay [2] it was 28.4 µM (inactive); in [3] it was 17.7 µM (inactive); in assay [4], 20.8 µM (inactive); in assay [5] it was 18.6 µM; in [20], 39.3 µM (inactive). Moreover, the GI50 is 23.4 µM (inactive) in assay [6]; 16.8 µM (inactive) in assay [7]; 30.3 µM (inactive) in assay [8]; 21.4 µM (inactive) in assay [9]; 13.1 µM (inactive) in assay [10]; 22.9 µM (inactive) in assay [11]. In addition, the GI50 in assay [12] was 18.7 µM (inactive); in [13] it was 23.1 µM (inactive); in [14], 17.5 µM (inactive); in assay [15], 26.5 µM (inactive); in [16] it was 17.3 µM (inactive); in assay [17] it was 22.1 µM (inactive). Further, the GI50 in [19] is 29.3 µM (inactive).
As to `CC1(C)Oc2ccc3c(=O)cc(-c4ccccc4)oc3c2C1C(=O)O` (stereo not drawn), the GI50 was > 100 µM (inactive) in [1]; > 100 µM (inactive) in assay [2]; > 100 µM (inactive) in [3]; > 100 µM (inactive) in assay [4]; more than 100 µM in assay [5]; > 100 µM (inactive) in assay [6]. In addition, the GI50 in assay [8], in [9], in assay [10], in [11], in assay [12] and in assay [13] was > 100 µM (inactive) each time. The GI50 in assay [14], in assay [15], in [16], in [17] and in [18] was > 100 µM (inactive) throughout.
